41 molecules from patent publication US11279703B2, “Fused pyrimidine compounds as BRD4 and JAK2 dual inhibitors and methods for use thereof” (APTOSE BIOSCIENCES INC., priority 2016, dated 2022) can be followed below.

pIC50: −log10 of the molar value. Where two headings read alike, the source gives them in different places.

For assay [1], the target named is JAK2 (Homo sapiens (Human), UniProt O60674). Description: HTRF kinase assay, JAK2. The assay is classed as biochemical. An excerpt: A kinase assay with HTRF was used to observe JAK activity and calculate the IC50s of compounds disclosed herein. HTRF is an enzymatic assay used to determine the amount of phosphorylated peptide. FRET (Fluorescence Resonance Energy Transfer) is based on the transfer of energy between two fluorophores—a donor and an acceptor—when in close proximity. Molecular interactions between biomolecules can be assessed by coupling each partner with a fluorescent label and by detecting the level of energy transfer. The amount of phopshorylated peptide can be detected using a combination of a Eu 3+Cryptate labeled anti-phospho residue antibody, SA-XL665 and a biotinylated substrate. The signal is proportional to the concentration of phospho-residues.
Equipment Required • 1. […] Plate centrifuge • 3. Plate shaker • 4. […] Single channel and multi-channel pipettes • 6. Microplate reader (Pherastar)]
Stock and Final Assay Concentrations (FAC) • 1. All reference and test compounds are made at a concentration of 10 mM in DMSO. Compounds are serially diluted in DMSO and a FAC starting from 10 μM to 10 point 3 fold serial dilutions is arrived. For Ruxolitinib the starting FAC is 1 μM. FAC of DMSO is 1%. • 2. Enzyme stock and FAC
• JAK-1: Invtirogen Cat: PR8767C • JAK-2: Invtirogen Cat: PR7820B • JAK-3: Invtirogen Cat: PR7507B • 3. Substrate (synthetic peptide-Biotinylated-N-terminal tag-[…] from Biopeptide) stock and FAC
• Adenosine 5′-triphosphate disodium salt hydrate: Sigma Cat: A26209 • 5. […] Buffers • Base buffer (for 50 ml)
• HTRF buffer: • 50 mM Tris-HCl, pH—7.5 • 100 mM NaCl • 0.1% BSA • 0.05% Tween20 • 0.5 mM EDTA
To a 384 well black-plate: • 1. Add 17 μL of the buffer to each well of the 384-well black plate • 2. […] Add 5 μl of the enzyme to each well of the plate • 4. Add 10 μl of the substrate and ATP mix to all the wells • 5. Cover with plate sealer • 6. […] Incubate at room temperature for 1 hour on shaker • 8. […] Add 37.5 μL of the HTRF mix to these wells. • 9. Incubate the plate at room temperature on shaker for 45 minutes. • 10.
(§1) The percent inhibition is calculated in the excel analysis template and the IC50 values are subsequently determined using a sigmoidal dose-response curve (variable slope) using GraphPad Prism® 5 software.
On the technique in general: TR-FRET usually uses a lanthanide donor and a delayed reading to cut background.

Assay [2] concerns the target BRD4-BD1 (Homo sapiens (Human), UniProt O60885). Description: AlphaLisa bromodomain binding assay, BRD4-BD1.
Excerpt: An AlphaLisa assay was used to observe bromodomain binding and measure IC50s for the compounds disclosed herein. An AlphaLisa assay is a bead-based assay used to detect interactions between bromodomains and polyacetylated histone peptides. Donor and acceptor beads bound to target and ligand are brought into proximity by this protein-protein interaction.
Equipment Required • 1. […] Plate centrifuge • 3. Plate shaker • 4. […] Single channel and multi-channel pipettes • 6. Microplate reader (Pherastar)
Stock and Final Assay Concentrations (FAC) • 1. All reference and test compounds are made at a concentration of 10 mM in DMSO. Compounds are serially diluted in DMSO and a FAC starting from 10 μM to 10 point 3 fold serial dilutions is arrived. FAC of DMSO is 1%. • 2. Enzyme stock and FAC
Biotinylated substrate (Acetylated histone H4, biotinylated substrate—cat no. AS64989-025, Anaspec) stock and FAC
• 4. Acceptor and donor beads stock and FAC
Buffers • For the enzyme and substrate dilution following buffer is used (for 50 ml) • HEPES: 50 mM 2.5 ml • NaCl: 25 mM 1.25 ml • DTT: 10 mM 0.05 ml • BSA: 0.1% 0.05 g • MilliQ water: 45.7 ml • For dilution of acceptor and donor beads AlphaLISA 5× epigenetics Buffer Perkin Elmer (Cat: AL008C) is used at 1× concentration.
Procedure • 1. […] Tap the plate gently • 3. […] Cover with plate sealer • 5. […] Incubate the plate at room temperature for 10 minutes • 7. Add 10 μl of the substrate • 8. Cover with plate sealer • 9. […] Cover with plate sealer • 14. […] Cover with plate sealer • 18.
as §1
For orientation: In Alpha technology, singlet oxygen from a donor bead excites a nearby acceptor bead.

The mark [3] stands for this setting: Table 6, read-out: BRD4(1) IC50.

Sequence of JAK2 (O60674 whole entry): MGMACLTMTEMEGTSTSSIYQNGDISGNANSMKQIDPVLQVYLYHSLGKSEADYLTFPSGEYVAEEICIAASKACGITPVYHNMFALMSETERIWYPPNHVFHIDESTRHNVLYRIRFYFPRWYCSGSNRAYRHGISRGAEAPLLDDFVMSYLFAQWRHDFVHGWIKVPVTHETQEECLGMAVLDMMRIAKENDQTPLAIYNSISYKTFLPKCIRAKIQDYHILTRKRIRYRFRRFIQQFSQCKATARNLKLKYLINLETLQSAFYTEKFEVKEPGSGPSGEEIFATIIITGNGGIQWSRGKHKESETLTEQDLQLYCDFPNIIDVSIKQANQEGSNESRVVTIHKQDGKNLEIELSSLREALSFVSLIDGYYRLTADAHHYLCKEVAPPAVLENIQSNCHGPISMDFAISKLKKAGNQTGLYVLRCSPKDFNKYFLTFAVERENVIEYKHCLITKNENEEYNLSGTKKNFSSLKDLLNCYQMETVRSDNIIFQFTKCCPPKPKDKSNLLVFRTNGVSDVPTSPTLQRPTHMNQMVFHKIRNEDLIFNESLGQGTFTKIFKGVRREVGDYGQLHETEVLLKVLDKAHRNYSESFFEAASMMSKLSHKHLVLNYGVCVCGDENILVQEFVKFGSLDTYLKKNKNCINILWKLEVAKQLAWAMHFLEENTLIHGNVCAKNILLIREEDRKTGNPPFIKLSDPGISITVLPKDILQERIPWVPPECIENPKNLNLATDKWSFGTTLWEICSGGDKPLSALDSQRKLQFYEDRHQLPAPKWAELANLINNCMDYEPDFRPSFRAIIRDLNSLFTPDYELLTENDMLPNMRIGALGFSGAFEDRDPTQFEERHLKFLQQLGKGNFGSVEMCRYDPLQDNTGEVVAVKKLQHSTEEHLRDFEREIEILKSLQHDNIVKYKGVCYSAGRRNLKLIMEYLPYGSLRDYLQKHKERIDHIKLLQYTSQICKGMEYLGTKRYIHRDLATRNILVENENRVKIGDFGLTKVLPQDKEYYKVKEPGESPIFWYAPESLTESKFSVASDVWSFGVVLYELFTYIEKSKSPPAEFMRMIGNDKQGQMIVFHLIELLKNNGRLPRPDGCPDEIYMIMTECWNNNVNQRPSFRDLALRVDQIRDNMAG

As a reminder, the pIC50 is the IC50 on a negative log10 scale, so that one unit is a factor of ten. On to `CC(C)(C)S(=O)(=O)Nc1cccc(-n2ccc3cnc(Nc4ccc(N5CCNCC5)c(F)c4)nc32)c1` [drawing 431], for which the pIC50 in assay [1] (Table 6) was 8.02; in assay [2] (setting [3]), 6.61.

Regarding `CC(C)(C)S(=O)(=O)Nc1cccc(-n2ccc3cnc(Nc4ccc(CC(=O)NCCN)cc4)nc32)c1`, the pIC50 in assay [1] (Table 6) was 7.19; in assay [2] (setting [3]) it was 6.39.

As for `CN1CCN(c2ccc(Nc3nc(Nc4ccc(Cl)c(NS(=O)(=O)C(C)(C)C)c4)c4sccc4n3)cc2)CC1`, the pIC50 in assay [1] (Table 6) is 5.00; in assay [2] (setting [3]), 5.57.

For `O=S(=O)(Nc1cccc(-n2ccc3cnc(Nc4ccc(N5CCNCC5)cc4)nc32)c1)C1CC1` [drawing 320], the pIC50 is 8.22 in assay [1] (Table 6) and 6.35 in assay [2] (setting [3]).

With `O=C(NC1CCNCC1)c1ccc(Nc2ncc3ccn(-c4cccc(NS(=O)(=O)C5CC5)c4)c3n2)cc1`, the pIC50 was 7.40 in assay [1] (Table 6) and 5.68 in assay [2] (setting [3]).

Consider `CN(C)C1CCN(c2ccc(Nc3ncc4ccn(-c5cccc(NS(=O)(=O)C(C)(C)C)c5)c4n3)cc2)C1` (stereo not shown), for which the pIC50 in assay [1] (Table 6) is 7.43; in assay [2] (setting [3]), 6.07.

For the molecule `CC(C)(C)S(=O)(=O)Nc1cccc(Nc2nc(NC3CCNCC3)nc3sccc23)c1` [drawing 270], the pIC50 in assay [1] (Table 6) was 5.00; in assay [2] (setting [3]), 6.59.

With `CN1CCN(c2ccc(Nc3ncc4ccn(-c5ccc(F)c(NS(=O)(=O)C6CC6)c5)c4n3)cc2)CC1`, the pIC50 in assay [1] (Table 6) is 7.82; in assay [2] (setting [3]), 5.83.

As to `CN1CCN(c2ccc(Nc3ncc4ccn(-c5cccc(NS(=O)(=O)C(C)(C)C)c5)c4n3)cc2Cl)CC1`, the pIC50 in assay [1] (Table 6) was 8.10; in assay [2] (setting [3]), 5.95.

Turning to `CN1CCC(NC(=O)c2ccc(Nc3ncc4ccn(-c5ccc(F)c(NS(=O)(=O)C6CC6)c5)c4n3)cc2F)CC1`, the figures for the pIC50 in assay [1] (Table 6) and in assay [2] (setting [3]) were 7.46 and 6.11, respectively.

For the molecule `CN1CCN(c2ccc(Nc3ncc4ccn(-c5ccc6c(c5)N(S(=O)(=O)C(C)(C)C)CC6)c4n3)cc2)CC1`, the pIC50 in assay [1] (Table 6) was 7.49; in assay [2] (setting [3]) it was 5.85.

For the molecule `CN1CCC(Nc2ncc3ccn(-c4cccc(NS(=O)(=O)C(C)(C)C)c4)c3n2)CC1`, the pIC50 is 3.00 in assay [1] (Table 6) and 6.55 in assay [2] (setting [3]).

Regarding `Cc1cc(Nc2ncc3ccn(-c4cccc(NS(=O)(=O)C(C)(C)C)c4)c3n2)ccc1N1CCN(C)CC1`, the pIC50 in assay [1] (Table 6) was 7.96; in assay [2] (setting [3]), 6.14.

`CN1CCN(c2ccc(Nc3ncc4ccn(-c5cccc(NS(=O)(=O)C6(C)CC6)c5)c4n3)cc2)CC1`: the pIC50 was 7.92 in assay [1] (Table 6) and 6.03 in assay [2] (setting [3]).

Consider `CN1CCN(c2ccc(Nc3ncc4ccn(-c5ccc(NS(=O)(=O)C(C)(C)C)cc5)c4n3)cc2)CC1` [drawing 362], for which the pIC50 in assay [1] (Table 6) is 9.15; in assay [2] (setting [3]), 5.00.

On to `CC1CNCCC1Nc1nc(Nc2ccc3c(c2)N(S(=O)(=O)C(C)(C)C)CC3)c2ccsc2n1` (stereo not shown), for which the results for the pIC50 in assay [1] (Table 6) and in assay [2] (setting [3]) were 5.00 and 5.24, respectively.

In the case of `Cc1ccc(-n2ccc3cnc(Nc4ccc(N5CCNCC5)cc4)nc32)cc1NS(=O)(=O)C1CC1`, the pIC50 in assay [1] (Table 6) was 7.51; in assay [2] (setting [3]), 5.66.

Consider `CN(C)C1CCN(c2ccc(Nc3ncc4ccn(-c5ccc(F)c(NS(=O)(=O)C(C)(C)C)c5)c4n3)cc2F)CC1` [drawing 408], for which the negative-log IC50 (pIC50) in assay [1] (Table 6) was 7.37; in assay [2] (setting [3]) it was 7.20.

For `COc1cc(Nc2ncc3ccn(-c4cccc(NS(=O)(=O)C5CC5)c4)c3n2)ccc1N1CCN(C)CC1`, the values for the pIC50 in assay [1] (Table 6) and in assay [2] (setting [3]) were 7.82 and 5.74, respectively.

In the case of `CC(C)(C)S(=O)(=O)Nc1cccc(Nc2nc(NC3CCN(C(N)=O)CC3)nc3sccc23)c1`, the results for the pIC50 in assay [1] (Table 6) and in assay [2] (setting [3]) were 5.00 and 5.52, respectively.

Turning to `CC1CNCCC1Nc1nc(Nc2cccc(NS(=O)(=O)C(C)(C)C)c2)c2ccsc2n1` (stereo not shown), the figures for the pIC50 in assay [1] (Table 6) and in assay [2] (setting [3]) were 5.00 and 5.70, respectively.

As to `CN1CCC(Nc2nc(Nc3cccc(NS(=O)(=O)C(C)(C)C)c3)c3cc[nH]c3n2)CC1`, the results for the pIC50 in assay [1] (Table 6) and in assay [2] (setting [3]) were 5.00 and 5.15, respectively.

As to `CN(C)C1CCN(c2ccc(Nc3ncc4ccn(-c5cccc(NS(=O)(=O)C6CC6)c5)c4n3)cc2)CC1`, the values for the pIC50 in assay [1] (Table 6) and in assay [2] (setting [3]) were 7.85 and 6.06, respectively.

As to `CC(C)S(=O)(=O)N1CCN(c2ccc(Nc3ncc4ccn(-c5cccc(NS(=O)(=O)C(C)(C)C)c5)c4n3)cc2)CC1`, the pIC50 was 6.92 in assay [1] (Table 6) and 5.08 in assay [2] (setting [3]).

For `Cc1ccc(-n2ccc3cnc(Nc4ccc(N5CCN(C)CC5)cc4)nc32)cc1NS(=O)(=O)C1CC1`, the pIC50 in assay [1] (Table 6) was 7.71; in assay [2] (setting [3]) it was 5.51.

For `CNc1cc(Nc2ncc3ccn(-c4cccc(NS(=O)(=O)C(C)(C)C)c4)c3n2)ccc1N1CCN(C)CC1`, the values for the pIC50 in assay [1] (Table 6) and in assay [2] (setting [3]) were 7.66 and 6.25, respectively.

As to `CN1CCN(C(=O)Cc2ccc(Nc3ncc4ccn(-c5cccc(NS(=O)(=O)C(C)(C)C)c5)c4n3)cc2)CC1`, the pIC50 in assay [1] (Table 6) was 6.75; in assay [2] (setting [3]), 6.04.

Regarding `Cc1cnc(Nc2ccc(N3CCN(C)CC3)cc2)nc1Nc1cccc(NS(=O)(=O)C(C)(C)C)c1` [drawing 231], the pIC50 in assay [1] (Table 6) was 8.10; in assay [2] (setting [3]) it was 6.88.

Consider `CC(C)(C)S(=O)(=O)Nc1cccc(-n2ccc3cnc(Nc4ccc(N5CCOCC5)cc4)nc32)c1`, for which the values for the pIC50 in assay [1] (Table 6) and in assay [2] (setting [3]) were 7.61 and 5.26, respectively.

Consider `CC(C)(C)S(=O)(=O)Nc1cccc(Nc2nc(NC3CCNCC3)nc3[nH]ccc23)c1`, for which the pIC50 in assay [1] (Table 6) and in assay [2] (setting [3]) was 5.00 in each case.

Take `CN(C)C1CCN(c2ccc(Nc3ncc4ccn(-c5ccc(F)c(NS(=O)(=O)C6CC6)c5)c4n3)cc2)CC1`: the pIC50 was 8.00 in assay [1] (Table 6) and 6.00 in assay [2] (setting [3]).

For `CC(=O)N1CCC(c2ccc(Nc3ncc4ccn(-c5cccc(NS(=O)(=O)C(C)(C)C)c5)c4n3)cc2)CC1`, the pIC50 in assay [1] (Table 6) was 6.34; in assay [2] (setting [3]), 5.00.

Regarding `CN1CCN(c2ccc(Nc3ncc4ccn(-c5cccc(N(C)S(=O)(=O)C(C)(C)C)c5)c4n3)cc2)CC1`, the pIC50 is 8.05 in assay [1] (Table 6) and 5.96 in assay [2] (setting [3]).

For the molecule `CN(C)C1CCN(c2ccc(Nc3ncc4ccn(-c5cccc(NS(=O)(=O)C(C)(C)C)c5)c4n3)cc2)CC1` [drawing 75], the pIC50 was 8.14 in assay [1] (Table 5) and 6.76 in assay [2] (Table 5, read-out: BRD4 IC50).

Regarding `CN1CCN(c2ccc(Nc3cc(Nc4cccc(NS(=O)(=O)C(C)(C)C)c4)c4sccc4n3)cc2)CC1`, the figures for the pIC50 in assay [1] (Table 6) and in assay [2] (setting [3]) were 5.33 and 5.54, respectively.

On to `CN1CCN(c2ccc(Nc3ncc4ccn(-c5cccc(NC(=O)C(C)(C)C)c5)c4n3)cc2)CC1`, for which the figures for the pIC50 in assay [1] (Table 6) and in assay [2] (setting [3]) were 7.27 and 5.00, respectively.

With `O=S(=O)(Nc1cccc(-n2ccc3cnc(Nc4ccc(N5CCNCC5)cc4)nc32)c1)C1CC1` [drawing 307], the pIC50 in assay [1] (Table 6) is 8.30; in assay [2] (setting [3]), 5.87.

As to `CN1CCC(c2ccc(Nc3ncc4ccn(-c5cccc(NS(=O)(=O)C6CC6)c5)c4n3)cc2)CC1`, the pIC50 in assay [1] (Table 6) is 7.29; in assay [2] (setting [3]), 5.57.

`CCC1(S(=O)(=O)Nc2cc(-n3ccc4cnc(Nc5ccc(N6CCN(C)CC6)c(F)c5)nc43)ccc2F)CC1`: the figures for the pIC50 in assay [1] (Table 6) and in assay [2] (setting [3]) were 6.99 and 5.82, respectively.

Regarding `CC(C)(C)S(=O)(=O)Nc1cc(-c2csc3cnc(Nc4ccc(N5CCNCC5)c(F)c4)nc23)ccc1F`, the pIC50 was 7.29 in assay [1] (Table 6) and 6.79 in assay [2] (setting [3]).

For `COc1cc(Nc2ncc3scc(-c4cccc(NS(=O)(=O)C(C)(C)C)c4)c3n2)ccc1N1CCC(N(C)C)CC1`, the pIC50 was 9.00 in assay [1] (Table 6) and 6.25 in assay [2] (setting [3]).
